Here are results for 21 compounds from patent US4904819A, “Bicyclic sulfonamide derivatives and process therefor” (Shionogi & Co., Ltd., priority 1987, dated 1990).

The test system of one experiment is washed platelet. Description: Inhibition of platelet aggregation caused by collagen (washed platelet, aggregometer). It counts as cell-based, male rat (Sprague-Dowley). Particulars: 0.05 h; platelet aggregating agent: collagen, 4 μg/ml final; rat washed platelet, 37° C.; measured 3 minutes after adding agent; read-out: Inhibition of Platelet Aggregation [50% Inhibitory Concentration]. Here is the method: From the abdominal artery of a male rat (Sprague-Dowley, 8 weeks old) was collected 10 ml of blood with a syringe containing 1.5 ml of ACD (85 mM sodium citrate, 70 mM citric acid, 110 mM glucose) and 20 μg of prostaglandin E1. The blood is placed in a plastic test tube, mixed by moderate turning and centrifuged for 10 minutes at 160×g to give platelet rich plasma (PRP). To the prepared PRP was added apyrase (25 μg/ml) and the mixture was layered on 40% bovine serum albumin. The resulting mixture is centrifuged at 1200×g for 25 minutes. The platelet pellet suspended in a small amount of a buffer (137 mM NaCl, 2.7 mM KCl, 1.0 mM MgCl2, 3.8 mM NaH2 PO4, 3.8 mM Hepes, 5.6 mM glucose, 0.035% bovine serum albumin, pH 7.35) was applied on 10 ml of Sepharose 2B column and eluted with the buffer to prepare a washed platelet.
The platelet aggregation reaction was measured by an aggregometer (NKK HEMA TRACER 1 MODEL PAT-6A·6M, Niko bioscience). In a measuring cuvette was placed 245 μl of the washed platelet of which platelet number was adjusted to 5×10^5 /μl and set in the aggregometer. The washed platelet was stirred (1000 rpm) at 37° C. and 3.8 μl of 0.1M of CaCl2 was added thereto. One minutes after, 0.5 μl of a solution of test compound (dimethylsulfoxide solution) was added and 2 minutes after, 1 μl of Collagen reagent Horm® [HORMON-CHEMIE Munchen GMBH, final concentrate 4 μg/ml) as a platelet aggregating agent was added. The change in light transmittance caused by platelet aggregation was recorded against time elasped.
50% aggregation inhibitory rate was calculated from the aggregation inhibitory rate (which was measured 3 minutes after adding a platelet aggregating agent). The light transmittance for the washed platelet and the buffer were setted at 0% and 100%, respectively.
Regarding `CC1(C)[C@H]2C[C@H](C/C=C\CCCC(=O)O)[C@H](NS(=O)(=O)c3ccccc3)[C@@H]1C2` [Compound 7a-a], the IC50 stood at 11 nM. As to `Cc1ccc(S(=O)(=O)N[C@H]2[C@@H](C/C=C\CCCC(=O)O)C[C@H]3C[C@@H]2C3(C)C)cc1` [Compound 7a-b], the IC50 is 115 nM.

`CC1(C)[C@H]2C[C@H](C/C=C\CCCC(=O)O)[C@@H](NS(=O)(=O)c3ccccc3)[C@@H]1C2` [Compound 7b-a]: the IC50 was found to be 0.7 nM. Still for that read-out and setting: in the case of `Cc1ccc(S(=O)(=O)N[C@@H]2[C@@H](C/C=C\CCCC(=O)O)C[C@H]3C[C@@H]2C3(C)C)cc1` [Compound 7b-b] it was 1.7 nM. On the same count and under the same terms, in the case of `CC1(C)[C@H]2C[C@H](C/C=C\CCCC(=O)O)[C@@H](NS(=O)(=O)c3ccc(Cl)cc3)[C@@H]1C2` [Compound 7b-d] it was 5.3 nM; in that of `CC1(C)[C@H]2C[C@H](C/C=C\CCCC(=O)O)[C@@H](NS(=O)(=O)c3ccccc3Cl)[C@@H]1C2` [Compound 7b-e], 6.4 nM. The same measure, in the same setting: in the case of `CC1(C)[C@H]2C[C@H](C/C=C\CCCC(=O)O)[C@@H](NS(=O)(=O)c3cccc(Cl)c3)[C@@H]1C2` [Compound 7b-f] it was 1.3 nM; in that of `CCc1ccc(S(=O)(=O)N[C@@H]2[C@@H](C/C=C\CCCC(=O)O)C[C@H]3C[C@@H]2C3(C)C)cc1` [Compound 7b-g], 9.9 nM; in that of `CC1(C)[C@H]2C[C@H](C/C=C\CCCC(=O)O)[C@@H](NS(=O)(=O)c3ccc([N+](=O)[O-])cc3)[C@@H]1C2` [Compound 7b-h], 26 nM. For the compound `COc1ccc(S(=O)(=O)N[C@@H]2[C@@H](C/C=C\CCCC(=O)O)C[C@H]3C[C@@H]2C3(C)C)cc1` [Compound 7b-i], the IC50 is 3.4 nM. `CC1(C)[C@H]2C[C@H](C/C=C\CCCC(=O)O)[C@@H](NS(=O)(=O)c3ccc(O)cc3)[C@@H]1C2` [Compound 7b-k]: the IC50 turned out to be 1.8 nM.

For the compound `CC1(C)[C@H]2C[C@H](C/C=C\CCCC(=O)O)[C@@H](NS(=O)(=O)c3ccc(-c4ccccc4)cc3)[C@@H]1C2` [Compound 7b-l], the IC50 is 9.9 nM.

With `CC1(C)[C@H]2C[C@H](C/C=C\CCCC(=O)O)[C@@H](NS(=O)(=O)c3ccc4ccccc4c3)[C@@H]1C2` [Compound 7b-m], the IC50 stood at 4.3 nM.

Consider `CC1(C)[C@H]2C[C@H](C/C=C\CCCC(=O)O)[C@@H](NS(C)(=O)=O)[C@@H]1C2` [Compound 7b-n], for which the IC50 came out at 480 nM. Regarding `CC1(C)[C@H]2C[C@H](C/C=C\CCCC(=O)O)[C@@H](NS(=O)(=O)Cc3ccccc3)[C@@H]1C2` [Compound 7b-o], the IC50 amounted to 240 nM.

Regarding `CC1(C)[C@H]2C[C@H](C/C=C\CCCC(=O)O)[C@@H](NS(=O)(=O)CCc3ccccc3)[C@@H]1C2` [Compound 7b-p], the IC50 worked out at 13 nM.

Regarding `CC1(C)[C@H]2C[C@H](C/C=C\CCCC(=O)O)[C@@H](NS(=O)(=O)CCCc3ccccc3)[C@@H]1C2` [Compound 7b-q], the IC50 is 12 nM.

With `CC1(C)[C@H]2C[C@@H](C/C=C\CCCC(=O)O)[C@@H](NS(=O)(=O)c3ccccc3)[C@@H]1C2` [Compound 7d-a], the IC50 came to 37 nM. Still for that read-out and setting: in the case of `CC1(C)[C@H]2C[C@H](C/C=C/CCCC(=O)O)[C@@H](NS(=O)(=O)c3ccccc3)[C@@H]1C2` [Compound 10b-a] it was 1.4 nM; in that of `CC1(C)C2CC(NCC(O)Cc3ccccc3)C(C/C=C\CCCC(=O)O)C1C2` (stereo not drawn) [ONO-11120, reference compound], 115 nM.

A further experiment has as its system platelet; smooth muscle of bronchi, and of coronary, cerebral and pulmonary arteries.
Experiment: not given
Particulars: "it is said that"; prior art; cited from earlier work.
As to `CCCCC[C@H](O)/C=C/[C@H]1O[C@H]2C[C@H](O2)[C@@H]1C/C=C\CCCC(=O)O` [thromboxane A2], the “concentration at which the strong action occurs” value is 10^-10 to 10^-11 M.
